SMILES strings stand for the structures.

The test system of data set [1] is obese mice on a high fat diet (HFD). Kind of data set: Glucose tolerance test (GTT) in mice on high fat diet. The class given is in vivo, mouse. Particulars: HFD with 0.04% fenretinide for 16 weeks, 2 g/kg glucose. As for the experimental part: (§1) Plasma glucose was measured by glucometer (One Touch Ultra, Lifescan). Insulin (crystal chemical), FFAs (Wako) and adipokines (leptin, adiponectin, and resistin) (LINCO research) were measured using commercially available kits. ITT was performed by i.p. injection of recombinant regular human insulin 3-4 hours after food removal. Different insulin doses were used for different mouse lines and ages as described. GTT was performed by i.p. injection of glucose (1 or 2 g D-glucose per kg body weight) after overnight fasting.
(§2) To determine the effect of RBP4 independently of transgenic manipulation, adult FVB mice were treated with fenretinide (4-hydroxyphenyl retinamide, 4-HPR), a synthetic retinoid originally designed for cancer therapy. […] Three-week old male FVB mice received chow diet, high fat diet or high fat diet supplemented with 0.04% fenretinide. Fenretinide gel capsules were emptied and added directly to the fat soluble vitamin component of the Harlan-Teklad laboratory high fat diet in at the time of diet preparation. Light exposure was minimized during fenretinide high fat diet preparation. Fenretinide high fat diet was stored in the dark at 4° C. and were placed in mouse cages at 2-3 day intervals. […] Thus, both genetic and pharmacological interventions that decrease RBP4 levels improve insulin sensitivity even in obesity.

For data set [2] the test system is unchanged. Kind of data set: Insulin tolerance test (ITT) in mice on high fat diet. In kind it is in vivo, mouse. Particulars: HFD with 0.04% fenretinide, 15 weeks of treatment, 1.1 U/kg insulin. Here is the method: as §1, §2
Another data set has as its system RXR isoforms. The conditions noted are these: in vitro; cited from earlier work.
Data set [3] concerns ob/ob mice. Kind of data set: Long-term mortality of ob/ob mice. The class given is in vivo, mouse. The conditions noted are these: 10 months of treatment, compared to untreated controls. An excerpt:
The ob/ob mice at 10 months of age were severely obese.

A further data set addresses RBP4 with TTR (Homo sapiens, UniProt P02753). The conditions noted are these: cited from earlier work.
The nature of data set [4]: Food intake, body weight and obesity on high fat diet. The class given is in vivo, mouse. The conditions noted are these: 0.04% fenretinide in high fat diet, FVB mice. As for the experimental part: as §2
In data set [5] the test system is ob/ob mice. Kind of data set: IPGTT in ob/ob mice treated with fenretinide. The class given is in vivo, mouse. Here is the method:
IPGTT (2 mg/g body weight) was performed on mice (12 weeks old) after 8 weeks of diet/treatment (FIG. 26A). Plasma glucose was measured at the indicated times; the open circles represent ob/+, the closed circles represent ob/ob mice and the open squares represent ob/ob mice treated with fenretinide.
IPGTT (1 mg/g body weight) was performed on mice (42 weeks old). After 38 weeks of diet/treatment (FIG. 26B), plasma glucose was measured at the indicated times; the closed squares are ob/+, the closed circles are ob/+ mice treated with fenretinide; open squares are ob/ob and open circles are ob/ob treated with fenretinide.

A further data set deals with T1, serum RBP4 (Mus musculus, UniProt Q00724).
T1 construct: from tissue; host or cells: mouse serum (FVB and AG4KO mice)
Kind of data set: Serum RBP4 levels (immunoblot) in mice fed high fat diet with fenretinide. In kind it is in vivo. The conditions noted are these: oral, 0.04% fenretinide in high fat diet, FVB mice. Here is the method: Serum or plasma RBP4 was measured by diluting the serum or plasma 20 times in a standard detergent-containing buffer, separated by 15% SDS-PAGE, and transferred to nitrocellulose (Kim, Y. B., et al. Diabetes 48:310-320 (1999)). Mouse RBP4 and human RBP4 were detected using anti-rat or anti-human (DAKO, Germany) polyclonal antisera, respectively, followed by standard ECL detection.
as §2
Background: In western blotting, separated proteins are transferred to a membrane and probed.

`CC1=C(/C=C/C(C)=C/C=C/C(C)=C/C(=O)Nc2ccc(O)cc2)C(C)(C)CCC1` [fenretinide, 4-hydroxyphenyl retinamide]: in data set [1], the “glucose tolerance (GTT)” value is listed as “normalized glucose tolerance”. Moreover, in data set [2], the “insulin sensitivity (ITT)” value is recorded as “improved insulin sensitivity”. The “activation of RXR isoforms” value in the data set with RXR isoforms was “does not activate”. For the same compound, the long term mortality entry in the data set on ob/ob mice [3] is “reduced by almost half”. Also, on RBP4 with TTR, the “interaction of RBP4 with TTR” value is reported as “disrupts the interaction of RBP4 with TTR”. Moreover, in data set [4], the body weight entry was “did not affect”, the “development of obesity on the high fat diet” value is “did not affect” and the food intake entry is recorded as “did not affect”. Further, the “glucose tolerance (IPGTT)” value in the data set with ob/ob mice [5] (ob/ob mice 12 weeks old, 8 weeks of treatment, 2 mg/g body weight) is given as “greatly improved their glucose tolerance”. In the data set on ob/ob mice [5] (ob/ob mice 42 weeks old, 38 weeks of treatment, 1 mg/g body weight), the “glucose disposal (IPGTT)” value is on record as “improve glucosed disposal to nearly that of heterozygous mice”. The “serum RBP4 levels” value at serum RBP4 was “lowered serum RBP4 levels in obese mice on a high fat diet (HFD) to the level of non-obese control mice on a chow diet”.

Source of the values: patent US8568969B2, “RBP4 in insulin sensitivity/resistance, diabetes, and obesity” (Beth Israel Deaconess Medical Center, Inc., priority 2003, dated 2013).
